Converted amounts (≈) assume the structure as drawn. Like-named read-outs stand apart in the source and are kept apart here.
Key:
Assay type in all cases: cell-based
[1] = system: M. abscessus (ATCC 19977); test: MIC by broth microdilution, M. abscessus in cation adjusted Mueller Hinton broth; details: Mycobacteroides abscessus, ATCC19977, 96 h, read-out: MIC M. abscessus MH
Procedure: (§1) MIC values were determined by broth microdilution method according to the CLSI guidelines with the following exceptions: MIC against A. baumannii was performed in RPMI medium supplemented with 10% FCS and MIC against M. abscessus was performed in Middlebrook 7H9 broth supplemented with Middlebrook ADC growth supplement (10%; see column “M. abscessus 7H9”). MIC forM abscessus was determined a second time in standard cation adjusted Mueller Hinton broth without growth supplement (see colum “M. abscessus MH”). All other MIC were performed in standard cation adjusted Mueller Hinton broth, supplemented with Middlebrook ADC growth supplement (5%) for the slow growing mycobacteria (M. xenopi, M. kansasii and M. avium).
(§2) The following procedure applies to all species tested, except forM xenopi. From a fresh culture plate (from overnight to several days depending on the bacteria), cells were resuspended in 0.9% (w/v) saline solution and bacterial inoculum was prepared in the respective testing medium with 5×10^5 CFU/mL. For M. xenopi, the inoculum was prepared from a fresh liquid culture (7H9+ADC). The appropriate volumes of a 10 mg/mL compound solution were directly dispensed in the 96-well assay plate using a digital dispenser to create two-fold dilution series from 32 to 0.002 μg/mL final concentration for A. baumannii and S. aureus; from 16 to 0.016 μg/mL for M. abscessus and M. avium; and from 1 to 6×10^−5 μg/mL for M. kansasii and M. xenopi. 100 μL of bacterial suspension was finally added to the compounds. Plates were covered and incubated without shaking at 35° C. for 20 hours for A. baumanii and S. aureus; at 30° C. for 4 days for M. abscessus; and at 37° C. for 7 days (at least) for M. kansasii (covered with aluminum foil to avoid light exposure), M. avium and M. xenopi. Every experiment contained an antibiotic as quality control. MIC was determined visually as the lowest concentration of a compound that prevents visible growth of the bacteria.
(§3) The in vitro activity of compounds described herein was determined against S. aureus (UAMS-1625 strain), A. baumannii (HUMC1 strain), M. abscessus (ATCC 19977), M. kansasii (ATCC 12478), M. avium (ATCC 25291), and M. xenopi (ATCC 19250).

[2] = system: S. aureus (UAMS-1625 strain); test: MIC by broth microdilution, S. aureus; details: Staphylococcus aureus, 20 h, read-out: MIC S. aureus
Procedure: as §1, §2, §3

[3] = system: M. abscessus (ATCC 19977); test: MIC by broth microdilution, M. abscessus in Middlebrook 7H9 broth + ADC; details: Mycobacteroides abscessus, ATCC19977, 96 h; ATCC 19977; Middlebrook 7H9 broth + ADC growth supplement (10%); 30° C., 4 days; read-out: MIC M. abscessus 7H9
Procedure: as §1, §2, §3

[4] = system: A. baumannii (HUMC1 strain); test: MIC by broth microdilution, A. baumannii (RPMI + 10% FCS); details: Acinetobacter baumannii, read-out: MIC A. baumannii
Procedure: as §1, §2, §3

[5] = ATCC 19977, cation adjusted Mueller Hinton broth without growth supplement, 30° C., 4 days
[6] = HUMC1 strain, RPMI medium + 10% FCS, 35° C., 20 hours

| SMILES | MIC [1, 5] [µg/mL] | MIC [2] [µg/mL] | MIC [3] [µg/mL] | MIC [4, 6] [µg/mL] | MIC [1] [µg/mL] | MIC ([4]; 20 h) [µg/mL] |
| --- | --- | --- | --- | --- | --- | --- |
| CO[C@H]1/C=C/O[C@@]2(C)Oc3c(C)c(O)c4c(c3C2=O)C2=NC3(CCN(CC(C)C)CC3)NC2=C(NC(=O)/C(C)=C\C=C\[C@H](C)[C@H](O)[C@@H](C)[C@@H](O)[C@@H](C)[C@H](OC(=O)N2CCC(N(C)C)CC2)[C@@H]1C)C4=O [Compound 3] | 4 (≈ 4.17 µM) | 0.03 (≈ 0.0313 µM) | 0.5 | ≤ 0.002 |  |  |
| CO[C@H]1/C=C/O[C@@]2(C)Oc3c(C)c(O)c4c(c3C2=O)C2=NC3(CCN(CC(C)C)CC3)NC2=C(NC(=O)/C(C)=C\C=C\[C@H](C)[C@H](O)[C@@H](C)[C@@H](O)[C@@H](C)[C@H](OC(=O)N2CCC(Nc3cccnc3)CC2)[C@@H]1C)C4=O [Compound 5] | 4 (≈ 3.97 µM) | 0.125 (≈ 0.124 µM) | 1 | 0.004 |  |  |
| CO[C@H]1/C=C/O[C@@]2(C)Oc3c(C)c(O)c4c(c3C2=O)C2=NC3(CCN(CC(C)C)CC3)NC2=C(NC(=O)/C(C)=C\C=C\[C@H](C)[C@H](O)[C@@H](C)[C@@H](O)[C@@H](C)[C@H](OC(=O)N2CCN(C)CC2)[C@@H]1C)C4=O [Compound 6] | 4 (≈ 4.3 µM) | 0.06 (≈ 0.0644 µM) | 1 | 0.06 |  |  |
| CO[C@H]1/C=C/O[C@@]2(C)Oc3c(C)c(O)c4c(c3C2=O)C2=NC3(CCN(CC(C)C)CC3)NC2=C(NC(=O)/C(C)=C\C=C\[C@H](C)[C@H](O)[C@@H](C)[C@@H](O)[C@@H](C)[C@H](OC(=O)N2CCN(C3CCN(C)CC3)CC2)[C@@H]1C)C4=O [Compound 11] | 4 (≈ 3.94 µM) | 0.125 (≈ 0.123 µM) | 0.5 | ≤ 0.002 |  |  |
| CO[C@H]1/C=C/O[C@@]2(C)Oc3c(C)c(O)c4c(c3C2=O)C2=NC3(CCN(CC(C)C)CC3)NC2=C(NC(=O)/C(C)=C\C=C\[C@H](C)[C@H](O)[C@@H](C)[C@@H](O)[C@@H](C)[C@H](OC(=O)N2CCC(n3ccnc3)CC2)[C@@H]1C)C4=O [Compound 61] | 4 (≈ 4.07 µM) | 0.03 (≈ 0.0305 µM) |  | ≤ 0.016 |  |  |
| CO[C@H]1/C=C/O[C@@]2(C)Oc3c(C)c(O)c4c(c3C2=O)C2=NC3(CCN(CC(C)C)CC3)NC2=C(NC(=O)/C(C)=C\C=C\[C@H](C)[C@H](O)[C@@H](C)[C@@H](O)[C@@H](C)[C@H](OC(=O)N2CCC(N3CCCC3)CC2)[C@@H]1C)C4=O [Compound 62] | 1 (≈ 1.01 µM) | 0.06 (≈ 0.0609 µM) |  | ≤ 0.016 |  |  |
| CO[C@H]1/C=C/O[C@@]2(C)Oc3c(C)c(O)c4c(c3C2=O)C2=NC3(CCN(CC(C)C)CC3)NC2=C(NC(=O)/C(C)=C\C=C\[C@H](C)[C@H](O)[C@@H](C)[C@@H](O)[C@@H](C)[C@H](OC(=O)N2CCC3CCCCC3C2)[C@@H]1C)C4=O (stereo partly shown) [Compound 64] | 4 (≈ 4.12 µM) | 1 (≈ 1.03 µM) |  | 0.5 |  |  |
| CO[C@H]1/C=C/O[C@@]2(C)Oc3c(C)c(O)c4c(c3C2=O)C2=NC3(CCN(CC(C)C)CC3)NC2=C(NC(=O)/C(C)=C\C=C\[C@H](C)[C@H](O)[C@@H](C)[C@@H](O)[C@@H](C)[C@H](OC(=O)N2CCCC3(CN(CC5CCCCC5)C3)C2)[C@@H]1C)C4=O [Compound 65] | 0.125 (≈ 0.119 µM) | 0.5 (≈ 0.475 µM) |  | 0.004 |  |  |
| CO[C@H]1/C=C/O[C@@]2(C)Oc3c(C)c(O)c4c(c3C2=O)C2=NC3(CCN(CC(C)C)CC3)NC2=C(NC(=O)/C(C)=C\C=C\[C@H](C)[C@H](O)[C@@H](C)[C@@H](O)[C@@H](C)[C@H](OC(=O)N2CC3(CCN(CC5CCCCC5)CC3)C2)[C@@H]1C)C4=O [Compound 66] | 0.125 (≈ 0.119 µM) | 0.125 (≈ 0.119 µM) |  | 0.004 |  |  |
| CCN1CCC2(CC1)CCN(C(=O)O[C@H]1[C@H](C)[C@H](O)[C@H](C)[C@@H](O)[C@@H](C)/C=C/C=C(/C)C(=O)NC3=C4NC5(CCN(CC(C)C)CC5)N=C4c4c(c(O)c(C)c5c4C(=O)[C@@](C)(O/C=C/[C@H](OC)[C@H]1C)O5)C3=O)CC2 [Compound 68] | 1 (≈ 0.987 µM) | 0.06 (≈ 0.0592 µM) |  | 0.003 |  |  |
| CO[C@H]1/C=C/O[C@@]2(C)Oc3c(C)c(O)c4c(c3C2=O)C2=NC3(CCN(CC(C)C)CC3)NC2=C(NC(=O)/C(C)=C\C=C\[C@H](C)[C@H](O)[C@@H](C)[C@@H](O)[C@@H](C)[C@H](OC(=O)N2CCC3(CC2)CCN(C(C)C)CC3)[C@@H]1C)C4=O [Compound 69] | 1 (≈ 0.973 µM) | 0.125 (≈ 0.122 µM) |  | 0.002 |  |  |
| CO[C@H]1/C=C/O[C@@]2(C)Oc3c(C)c(O)c4c(c3C2=O)C2=NC3(CCN(CC(C)C)CC3)NC2=C(NC(=O)/C(C)=C\C=C\[C@H](C)[C@H](O)[C@@H](C)[C@@H](O)[C@@H](C)[C@H](OC(=O)N2CCC3(CCN(CC(C)C)CC3)CC2)[C@@H]1C)C4=O [Compound 70] | 0.25 (≈ 0.24 µM) | 0.125 (≈ 0.12 µM) |  | 0.004 |  |  |
| CO[C@H]1/C=C/O[C@@]2(C)Oc3c(C)c(O)c4c(c3C2=O)C2=NC3(CCN(CC(C)C)CC3)NC2=C(NC(=O)/C(C)=C\C=C\[C@H](C)[C@H](O)[C@@H](C)[C@@H](O)[C@@H](C)[C@H](OC(=O)N2CCC3(CCN(CCC(C)C)CC3)CC2)[C@@H]1C)C4=O [Compound 71] | 0.25 (≈ 0.237 µM) | 0.25 (≈ 0.237 µM) |  | 0.008 |  |  |
| CO[C@H]1/C=C/O[C@@]2(C)Oc3c(C)c(O)c4c(c3C2=O)C2=NC3(CCN(CC(C)C)CC3)NC2=C(NC(=O)/C(C)=C\C=C\[C@H](C)[C@H](O)[C@@H](C)[C@@H](O)[C@@H](C)[C@H](OC(=O)NC2CCN(C)CC2)[C@@H]1C)C4=O [Compound 73] |  | 0.03 (≈ 0.0317 µM) |  |  | 1 (≈ 1.06 µM) | 0.001 |
| CCN1CCC(NC(=O)O[C@H]2[C@H](C)[C@H](O)[C@H](C)[C@@H](O)[C@@H](C)/C=C/C=C(/C)C(=O)NC3=C4NC5(CCN(CC(C)C)CC5)N=C4c4c(c(O)c(C)c5c4C(=O)[C@@](C)(O/C=C/[C@H](OC)[C@H]2C)O5)C3=O)CC1 [Compound 74] | 2 (≈ 2.09 µM) | 0.03 (≈ 0.0313 µM) |  | ≤ 0.001 |  |  |
| CCCN1CCC(NC(=O)O[C@H]2[C@H](C)[C@H](O)[C@H](C)[C@@H](O)[C@@H](C)/C=C/C=C(/C)C(=O)NC3=C4NC5(CCN(CC(C)C)CC5)N=C4c4c(c(O)c(C)c5c4C(=O)[C@@](C)(O/C=C/[C@H](OC)[C@H]2C)O5)C3=O)CC1 [Compound 75] | 1 (≈ 1.03 µM) | 0.06 (≈ 0.0617 µM) |  | 0.001 |  |  |
| CO[C@H]1/C=C/O[C@@]2(C)Oc3c(C)c(O)c4c(c3C2=O)C2=NC3(CCN(CC(C)C)CC3)NC2=C(NC(=O)/C(C)=C\C=C\[C@H](C)[C@H](O)[C@@H](C)[C@@H](O)[C@@H](C)[C@H](OC(=O)NC2CCN(C(C)C)CC2)[C@@H]1C)C4=O [Compound 76] | 2 (≈ 2.06 µM) | 0.03 (≈ 0.0308 µM) |  | ≤ 0.001 |  |  |
| CO[C@H]1/C=C/O[C@@]2(C)Oc3c(C)c(O)c4c(c3C2=O)C2=NC3(CCN(CC(C)C)CC3)NC2=C(NC(=O)/C(C)=C\C=C\[C@H](C)[C@H](O)[C@@H](C)[C@@H](O)[C@@H](C)[C@H](OC(=O)NC2CCN(C3CCOCC3)CC2)[C@@H]1C)C4=O [Compound 78] |  | 0.06 (≈ 0.0591 µM) |  |  | 2 (≈ 1.97 µM) | ≤ 0.001 |
| CO[C@H]1/C=C/O[C@@]2(C)Oc3c(C)c(O)c4c(c3C2=O)C2=NC3(CCN(CC(C)C)CC3)NC2=C(NC(=O)/C(C)=C\C=C\[C@H](C)[C@H](O)[C@@H](C)[C@@H](O)[C@@H](C)[C@H](OC(=O)N(C)C2CC2)[C@@H]1C)C4=O [Compound 82] | 4 (≈ 4.43 µM) | 0.06 (≈ 0.0665 µM) |  | 0.008 |  |  |
| CO[C@H]1/C=C/O[C@@]2(C)Oc3c(C)c(O)c4c(c3C2=O)C2=NC3(CCN(CC(C)C)CC3)NC2=C(NC(=O)/C(C)=C\C=C\[C@H](C)[C@H](O)[C@@H](C)[C@@H](O)[C@@H](C)[C@H](OC(=O)N(C)C(C)C)[C@@H]1C)C4=O [Compound 83] | 2 (≈ 2.21 µM) | 0.125 (≈ 0.138 µM) |  | 0.016 |  |  |

From patent US20260234161A1, “RIFABUTIN ANALOGS FOR THE TREATMENT OF BACTERIAL DISEASES” (BIOVERSYS AG, priority 2023, published 2026)
